{"source": "patent EP1961762A1", "about": "“Inhibitors of protein phosphatase 1/GADD34, preparation and uses thereof” (Institut Gustave Roussy, priority 2007, dated 2008)", "key": {"CRT and/or ERp57": {"system": "CRT and/or ERp57", "test": "Immunofluorescence staining of unfixed human tumour cell lines", "format": "cell-based", "details": "variety of human tumour cell lines"}, "CT26 tumour cells": {"system": "CT26 tumour cells", "test": "Anti-tumour vaccination with dying treated CT26 tumour cells, challenge with live tumour cells", "format": "in vivo, BALB/c mice", "details": "for immunogenic cell death: PP1/GADD34 inhibitor alone"}, "CRT": {"system": "CRT", "test": "Fluorescence detection of cell surface CRT on CT26 cells", "format": "cell-based, murine", "method": "CT26 cells were cultured at 37°C under 5% CO2 in RPMI 1640 medium supplemented with 10% FCS, penicillin, streptomycin, 1 mM pyruvate and 10 mM HEPES in the presence of doxorubicin (DX; 24 h, 25 µM), mitoxantrone (Mitox; 24h, 1 µM, Sigma), idarubicin (24h, 1 µM, Aventis, France), mitomycin C (30 µM, 48 h; Sanofi-Synthelabo, France), and/or zVAD-fmk (50 µM, 24 h; Bachem), tunicamycin (24h, 65 µM), thapsigargin (24h, 30µM), brefeldin A (24h, 50 µM, Sigma), etoposide (48h, 25µM, Tava classics), MG132 (48h, 10 µM), ALLN (48h, […]), betulinic acid (24h, 10 µM), Hoechst 33343 (24h, 0,2µM), camptothecine (24h, 15 µM), lactacystin (48h, 60 µM), BAY 11-8072 (24h, 30µM), staurosporine (24h, 1.5 µM), bafilomycin A1 (48h, 300 nM), arsenic trioxide (24h, 30µM), C2-ceramide (C2-C; 24h, 60 µM,), calyculin A (48h, 30nM), or tautomycin (48h, nM, Sigma) and/or salubrinal (48h, µM, Calbiochem).\nCT26 cells (on a glass slide or in 12-well plates) were first washed with FACS buffer (1× PBS, 5% fetus bovine serum, and 0.1% sodium azide) and then incubated with rabbit anti-mouse CRT antibody (1:100, Stressgen) in FACS buffer at 4 °C for 30 min. Cells reacted with anti-rabbit IgG (H+L) Alexa fluor 488-conjugates (1:500) in FACS buffer at 4 °C for 30 min. After washing three times with FACS buffer, surface CRT was detected by cytofluorometric analysis on a FACS Vantage. In some experiments, cells were fixed with 4% paraformaldehyde, counterstained with Hoechst (2µM; Sigma), followed by fluorescence microscopic assessment with a Leica IRE2 microscope equipped with a DC300F camera."}, "CT26 tumours [1]": {"system": "CT26 tumours", "test": "Intratumoural treatment of established CT26 tumours, immunocompetent mice", "details": "for therapeutic effect of single agent: single intratumoural injection, 14-day-old tumours", "procedure": "(§1) All animals were maintained in specific pathogen-free conditions and all experiments followed the FELASA guidelines. […] Tumours were evaluated weekly, using a caliper. In a series of experiments, BALB/c (wild type or nu/nu) carrying palpable CT26 tumours (implanted 14 days before for wild type or 7 days before for nu/nu mice by injection of 10^6 tumour cells) received a single intratumoural injection of 100 µM PBS containing the same concentration of anti-cancer agents and PP1/GADD34 inhibitors as those used in vitro, as well as rCRT (15 µg)."}, "HeLa, A549, HCT116": {"system": "HeLa, A549, HCT116", "test": "CRT exposure on human tumour cell lines", "format": "cell-based"}, "MCA205, B16F10, J558": {"system": "MCA205, B16F10, J558", "test": "CRT exposure on murine tumour cell lines", "format": "cell-based"}, "CT26 tumours [2]": {"system": "CT26 tumours", "test": "Intratumoural treatment of established CT26 tumours, nu/nu mice", "details": "single intratumoural injection", "procedure": "as §1"}, "[3]": {"details": "dying CT26 cells treated with the agent injected into one flank, live tumour cells into the opposite flank 8 days later"}}, "note": "Peptide text beside a SMILES is read from it. * marks the point of attachment. Cbz = O=C(OCc1ccccc1)*; CH2F = FC*"}
{"compound": "COc1cccc2c1C(=O)c1c(O)c3c(c(O)c1C2=O)C[C@@](O)(C(C)=O)C[C@@H]3O[C@H]1C[C@H](N)[C@H](O)[C@H](C)O1", "note": "[daunorubicin]", "values": [{"measurement": "exposure of CRT and/or ERp57 on the cell surface", "setting": "CRT and/or ERp57", "value": "Very similar results"}]}
{"compound": "C2-ceramide [C2 ceramide]", "values": [{"measurement": "immunogenic apoptosis / immunogenic cell death (protection against tumour growth)", "setting": "CT26 tumour cells; [3]", "value": "failed to induce immunogenic apoptosis"}]}
{"compound": "arsenic trioxide [arsenite]", "values": [{"measurement": "immunogenic apoptosis / immunogenic cell death (protection against tumour growth)", "setting": "CT26 tumour cells; mouse, in vivo", "value": "failed to induce immunogenic apoptosis"}]}
{"compound": "CC[C@@]1(O)C(=O)OCc2c1cc1n(c2=O)Cc2cc3ccccc3nc2-1", "note": "[camptothecin]", "values": [{"measurement": "immunogenic apoptosis / immunogenic cell death (protection against tumour growth)", "setting": "CT26 tumour cells; [3]", "value": "failed to induce immunogenic apoptosis"}]}
{"compound": "CC(=O)[C@]1(O)Cc2c(O)c3c(c(O)c2[C@@H](O[C@H]2C[C@H](N)[C@H](O)[C@H](C)O2)C1)C(=O)c1ccccc1C3=O", "note": "[idarubicin]", "values": [{"measurement": "immunogenic apoptosis / immunogenic cell death (protection against tumour growth)", "setting": "CT26 tumour cells; [3]", "value": "elicited immunogenic cell death"}, {"measurement": "exposure of CRT and/or ERp57 on the cell surface", "setting": "CRT and/or ERp57", "value": "Very similar results"}]}
{"compound": "COC(=O)C[C@H](NC(=O)[C@H](C)NC(=O)[C@@H](NC(=O)OCc1ccccc1)C(C)C)C(=O)CF", "note": "[Z-VAD-fmk] (Cbz-Val-Ala-Asp(OMe)-CH2F)", "values": [{"measurement": "immunogenicity of doxorubicin-elicited cell death", "setting": "CT26 tumour cells; Z-VAD-fmk combined with doxorubicin", "value": "reduces the immunogenicity"}]}
{"compound": "COC[C@@H]([C@H](O)[C@H](O)C(=O)NCC[C@H](C)c1nc(/C=C/C[C@@H]2O[C@]3(C[C@@H](O)[C@@H]2C)O[C@H]([C@H](C[C@H](O)[C@H](C)[C@H](O)[C@H](C)/C=C(C)/C(C)=C/C=C/C(C)=C\\C#N)OC)[C@H](OP(=O)(O)O)C3(C)C)co1)N(C)C", "note": "[calyculin A]", "values": [{"measurement": "immunogenic cell death", "setting": "CT26 tumour cells", "value": "not sufficient to induce immunogenic cell death"}, {"measurement": "immunogenic potential of cells succumbing to etoposide", "setting": "CT26 tumour cells; mouse, in vivo", "value": "greatly enhanced"}, {"measurement": "CRT exposure", "setting": "CRT; agent alone", "value": "efficiently induced"}, {"measurement": "CRT exposure", "setting": "CRT; in combination with etoposide", "value": "greatly enhanced"}]}
{"compound": "C[C@H]1CCC/C=C/[C@@H]2C[C@H](O)C[C@H]2[C@H](O)/C=C/C(=O)O1", "note": "[brefeldin, brefeldin A]", "values": [{"measurement": "immunogenic apoptosis / immunogenic cell death (protection against tumour growth)", "setting": "CT26 tumour cells; [3]", "value": "failed to induce immunogenic apoptosis"}]}
{"compound": "O=C(/C=C/c1ccccc1)NC(NC(=S)Nc1cccc2cccnc12)C(Cl)(Cl)Cl", "note": "(centres unmarked) [salubrinal]", "values": [{"measurement": "tumour response", "setting": "CT26 tumours [1]; combined with etoposide or mitomycin C, intratumoural", "value": "stable disease or complete tumour regression"}, {"measurement": "therapeutic effect of single agent", "setting": "CT26 tumours [1]", "value": "no major therapeutic effect"}, {"measurement": "CRT exposure", "setting": "HeLa, A549, HCT116", "value": "induced CRT exposure"}, {"measurement": "immunogenic cell death", "setting": "CT26 tumour cells", "value": "not sufficient to induce immunogenic cell death"}, {"measurement": "immunogenic potential of cells succumbing to etoposide", "setting": "CT26 tumour cells; in combination with etoposide (mitomycin C not shown), abrogated by knocking down CRT", "value": "greatly enhanced"}, {"measurement": "CRT exposure", "setting": "CRT; agent alone", "value": "efficiently induced"}, {"measurement": "CRT exposure", "setting": "CRT; in combination with etoposide", "value": "greatly enhanced"}, {"measurement": "CRT exposure", "setting": "MCA205, B16F10, J558", "value": "induced CRT exposure"}, {"measurement": "therapeutic effect of single agent", "setting": "CT26 tumours [2]", "value": "no major therapeutic effect"}]}
{"compound": "C/C1=C/C(=O)O[C@@H]2C[C@@H](CC[C@H](C)/C=C\\C=C\\CC1)O[C@@](O)([C@@H]1CSC(=O)N1)C2", "note": "[latrunculin A]", "values": [{"measurement": "effect on CRT exposure induced by anthracyclins and PP1/GADD34 inhibitors", "setting": "CRT; pre-incubation for 1 h with the inhibitor", "value": "abolished"}]}
{"compound": "CO[C@@]12[C@H](COC(N)=O)C3=C(C(=O)C(C)=C(N)C3=O)N1C[C@@H]1N[C@@H]12", "note": "[mitomycin C]", "values": [{"measurement": "therapeutic effect of single agent", "setting": "CT26 tumours [1]", "value": "no major therapeutic effect"}, {"measurement": "immunogenic apoptosis / immunogenic cell death (protection against tumour growth)", "setting": "CT26 tumour cells; mouse, in vivo", "value": "failed to induce immunogenic apoptosis"}, {"measurement": "therapeutic effect of single agent", "setting": "CT26 tumours [2]", "value": "no major therapeutic effect"}]}
{"compound": "CCOc1ccc(-c2nc3ccc(-c4nc5ccc(N6CCN(C)CC6)cc5[nH]4)cc3[nH]2)cc1", "note": "[Hoechst 33342]", "values": [{"measurement": "immunogenic apoptosis / immunogenic cell death (protection against tumour growth)", "setting": "CT26 tumour cells; [3]", "value": "failed to induce immunogenic apoptosis"}]}
{"compound": "tunicamycin", "values": [{"measurement": "immunogenic apoptosis / immunogenic cell death (protection against tumour growth)", "setting": "CT26 tumour cells; [3]", "value": "failed to induce immunogenic apoptosis"}]}
{"compound": "C/C=C(/C)C(=O)O[C@H]1C(C)=C2[C@H]([C@@H]1OC(=O)CCCCCCC)[C@@](C)(OC(C)=O)C[C@H](OC(=O)CCC)[C@@]1(O)[C@H]2OC(=O)[C@@]1(C)O", "note": "[thapsigargin]", "values": [{"measurement": "immunogenic apoptosis / immunogenic cell death (protection against tumour growth)", "setting": "CT26 tumour cells; [3]", "value": "failed to induce immunogenic apoptosis"}]}
{"compound": "COc1cc([C@@H]2c3cc4c(cc3[C@@H](O[C@@H]3O[C@@H]5CO[C@@H](C)O[C@H]5[C@H](O)[C@H]3O)[C@H]3COC(=O)[C@H]23)OCO4)cc(OC)c1O", "note": "[etoposide]", "values": [{"measurement": "therapeutic effect of single agent", "setting": "CT26 tumours [1]", "value": "no major therapeutic effect"}, {"measurement": "immunogenic apoptosis / immunogenic cell death (protection against tumour growth)", "setting": "CT26 tumour cells; [3]", "value": "failed to induce immunogenic apoptosis"}, {"measurement": "immunogenicity of etoposide-treated cells", "setting": "CT26 tumour cells; sham-coated cells", "value": "poorly immunogenic"}, {"measurement": "therapeutic effect of single agent", "setting": "CT26 tumours [2]", "value": "no major therapeutic effect"}]}
